What was measured:
Solubility in water = type: physicochemical; conditions: sterile water stock solutions
Method: Human ovarian carcinoma cells A2780 and A2780cisR and human embryonic kidney HEK293 were obtained from ATCC. A2780 and A2780cisR cells were cultured in RPMI 1640 medium containing 10% FBS. HEK293 were cultured in DMEM medium containing 10% FBS. All cells were grown in tissue culture 25 cm^2 flasks (BD Biosciences, Singapore) at 37 °C in a humidified atmosphere of 95% air and 5% CO2. All drug stock solutions were prepared in sterile water. The amount of Cu was determined by ICP–OES.

mouse R2 RNR protein = target: T1, mouse R2 RNR protein (Mus musculus, UniProt P11157); experiment: Tyrosyl radical reduction in R2 RNR protein by EPR; type: biochemical; conditions: 1:1 protein-to-compound ratio, 298 K, presence of DTT, within 90 s
T1 construct: made in house; host or cells: Escherichia coli
T1 sequence (P11157 1-390): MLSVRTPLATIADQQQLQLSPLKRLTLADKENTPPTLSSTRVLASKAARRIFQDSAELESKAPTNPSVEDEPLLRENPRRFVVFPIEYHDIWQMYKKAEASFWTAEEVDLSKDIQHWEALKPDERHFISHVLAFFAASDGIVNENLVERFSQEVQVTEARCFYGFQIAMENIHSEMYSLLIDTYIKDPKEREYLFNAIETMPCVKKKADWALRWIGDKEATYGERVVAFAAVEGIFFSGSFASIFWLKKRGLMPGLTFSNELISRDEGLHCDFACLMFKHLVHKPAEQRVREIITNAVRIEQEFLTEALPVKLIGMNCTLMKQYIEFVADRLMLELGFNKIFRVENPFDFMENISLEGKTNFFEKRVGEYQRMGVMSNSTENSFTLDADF
Method: The effects of the most cytotoxic complexes 2 and 5, and the corresponding proligands HL^2 and HL^5, on the mouse R2 tyrosyl radical were investigated by EPR spectroscopy at 30 K. The proligands and their Cu(II) complexes were incubated with the mouse R2 RNR protein at 1:1 protein-to-compound mole ratio at 298 K in the presence or absence of the reducing agent dithiothreitol (DTT), and the time-dependent reduction of the tyrosyl radical was monitored.[39] Tyrosyl radical reduction by the investigated compounds was observed only in the presence of DTT. Upon incubation with HL^2, HL^5, and 2, 5, 50% of tyrosyl radical was reduced within 90 s, after which no further reduction was observed (Figure S15). […] HL^2 and HL^5 (λmax = 312 and 320 nm, respectively) readily reacted with FeSO4·7H2O affording Fe(II) bis-ligand complexes (λmax = 373, 610 nm and λmax = 385, 645 nm, respectively) at both 1:1 and 1:2 Fe-to-ligand mole ratios. […]
The 9.4 GHz EPR spectra were recorded at 30 K on a Bruker EleXsys II E540 EPR spectrometer with an Oxford Instruments ESR900 helium cryostat, essentially as described previously.[51] […]

HEK293 cells = experiment: MTT cytotoxicity assay, HEK293; type: cell-based, human; conditions: for SF (selectivity factor): IC50(HEK293)/IC50(A2780); for IC50: MTT assay, 72 h exposure, noncancerous cells
A2780 cells [1] = experiment: MTT cytotoxicity assay, A2780; type: cell-based, human; conditions: 72 h exposure
A2780 cells [2] = experiment: Annexin V/PI apoptosis assay; type: cell-based, human; conditions: 24 h
Source text: To elucidate if observed cytotoxicity of new compounds described in this study was a result of apoptosis induction, we conducted Annexin V/PI apoptosis assay. In brief, fluorochrome-labeled Annexin V reagent is used for detection of membrane phosphatidylserine (PS), which translocates to the cellular surface from the inner side of plasma membrane in the event of early apoptosis. Simultaneously, PI is used for detection of later stages of apoptosis or necrosis, which are characterized by loss of membrane integrity and accumulation of PI inside the cells. […] Results are illustrated in Figure 9. Upon incubation of A2780 cells with increasing concentrations of HL^2 and 2, the dose-dependent increase of apoptotic cells was observed.
A2780 cells were seeded into Cellstar 12-well plates (Greiner Bio-One) at a density of 20 × 10^4 cells/well (1 mL per well). The cells were allowed to resume exponential growth for 24 h and subsequently they were exposed to HL^2 and 2 at different concentrations for 24 h. After the supernatant solution was collected in 1.5 mL microtubes, the cells were washed with 100 μL of trypsin, which was combined with the supernatant. Subsequently, cells were trypsinized with 200 μL of trypsin for 5 min at 37 °C, 5% CO2, washed with 200 μL of PBS, and combined with the supernatant. The cells were centrifuged at 2.5 × 10^3 rpm for 5 min and the pellets were washed once with PBS and resuspended in 500 μL of Annexin V binding buffer and stained with Annexin V-FITC and PI reagents. The fluorescence was immediately analyzed by flow cytometry. The resulting dot blots were acquired from 10 000 events and quantified using Flowjo software (Flowjo LLC, Ashland, OR, USA).

[3] = test system: Staphylococcus aureus CECT 86 (ATCC 12600); experiment: MIC microdilution, S. aureus; type: cell-based; conditions: planktonic cells; for S. aureus MIC50: growth inhibited at 50%; for S. aureus MIC100: lowest concentration completely inhibiting growth
Method: Wild-type P. aeruginosa PAO1 strain CECT 4122 (ATCC 15692) and S. aureus CECT 86 (ATCC 12600) were obtained from the Spanish Type Culture Collection (CECT). All strains were routinely cultivated in TSB medium (Sharlab, Spain) at 37 °C. MIC assays were determined by the microdilution method using TSB broth following the method described by the Clinical and Laboratory standards Institute.[94] In brief, compounds were diluted in a 96-well microtiter plate (tissue culture-treated polystyrene; […]

SMILES | solubility in water (Solubility in water) [µM] | tyrosyl radical reduced (mouse R2 RNR protein) [%] | SF (selectivity factor) (HEK293 cells) | IC50 (HEK293 cells) [nM] | IC50 (A2780 cells [1]) [nM] | apoptotic cells (A2780 cells [2]; A2780, 2IC50 concentration) [%] | apoptotic cells (A2780 cells [2]; A2780, 6IC50 concentration) [%] | S. aureus MIC50 [3] [µg/mL] | S. aureus MIC100 [3] [µg/mL]
CN(C)C(=NN=Cc1ccc(CN2CCOCC2)cn1)[S][Cu][Cl] [complex 2, [Cu(L^2)Cl]] | ≤ 2000 | 50 | 2.7 | 32 ± 8 | 12 ± 2 | 22.5 ± 5.3 | 24.4 ± 7.8 | 2 | 10
[Cl][Cu][S]C(=NN=Cc1ccc(CN2CCOCC2)cn1)Nc1ccccc1 [complex 5, [Cu(L^5)Cl]] | ≤ 2000 | 50 | 2.2 | 20 ± 3 | 9 ± 2 |  |  | 3 | 10

Reference: article PMC6348444, “New Water-Soluble Copper(II) Complexes with Morpholine–Thiosemicarbazone Hybrids: Insights into the Anticancer and Antibacterial Mode of Action” (Journal of Medicinal Chemistry, 2018)
